Assay results reported in patent US8088828B2, “Treating benign prostate hyperplasia with SARMS” (priority 2002, dated 2012).

What was measured:
Format in all cases: in vivo, rat
intact male rats = test: Compound VII 0.5 mg/day in intact male rats, organ weights
[1] = test system: intact male Sprague-Dawley rats; test: Organ weights in intact male rats after 3, 6 or 9 days of daily subcutaneous injections
Method: Methods: Male Sprague-Dawley rats were purchased from Harlan Biosciences (Indianapolis, Ind.). The animals were maintained on a 12-h cycle of light and dark with food and water available ad libitum. Male Sprague-Dawley rats weighing 189 to 226 g were randomly distributed into groups of 5 animals. The intact male rats were treated with hydroxy-flutamide (0.5, 1, 5, 10 or 25 mg/kg), finasteride (5 mg/kg), Compound VII (0.5, 1, 5, 10, 25 mg/kg) or vehicle for 3, 6, or 9 days. The drugs were dissolved in DMSO:PEG300 (20:80, v:v) and administered via daily subcutaneous injections, and the dosages were adjusted based on animal's body weight, which was measured on a daily basis. A group of castrated rats (n=5) was also included as control for each time point. […] The organ weights were normalized with the body weights. Percentage changes were determined by comparison to intact animals. Statistical analyses of all the parameters were performed by single-factor ANOVA with the alpha value set a priori at p<0.05.

[2] = test system: intact male Sprague-Dawley rats; test: Prostate weight in intact Sprague-Dawley rats after 7 days of oral gavage
[3] = 3 days, in general over 0.5, 1, 5, 10, 25 mg/kg s.c.
[4] = 9 days, high doses (5, 10, 25 mg/kg) s.c.

SMILES: C[C@](O)(COc1ccc(F)cc1)C(=O)Nc1ccc([N+](=O)[O-])c(C(F)(F)F)c1 [Compound VII]
- effect on levator ani muscle weight (intact male rats): without affecting
- prostate weight (intact male rats): 63 % of that observed in vehicle-treated intact animals
- effect on levator ani muscle weight ([1]; 3 days, 0.5, 1, 5, 10, 25 mg/kg s.c.): without affecting
- prostate weight (compared to intact animals) [1, 3]: 80%
- seminal vesicle weight (compared to intact animals) [1, 3]: 70%
- changes in levator ani muscle weights ([1]; 6 days, 5, 10, 25 mg/kg s.c.): none of these doses caused any significant changes
- increase of levator ani muscle weight ([1]; 9 days, 25 mg/kg s.c.): 12%
- prostate weight (compared to intact animals) [1, 4]: 50%
- seminal vesicle weight (compared to intact animals) [1, 4]: 45%
- levator ani muscle weight (compared to intact animals) ([1]; 9 days, highest dose group (25 mg/kg) s.c.): 112%
- changes in levator ani muscle weights ([1]; 9 days, most of the dose groups s.c.): no significant changes
- atrophy in prostate on increasing the dose 100-fold ([2]; 10 mg/kg compared to 1000 mg/kg as printed): did not significantly increase
- reduction of prostate weight (normalized to body weight) compared to the intact control ([2]; all treatment groups, oral gavage once daily for 7 days, p<0.01): greater than 48.4%
